One test concerns MCF7. Briefly: Inhibition of adriamycin-resistant breast tumor line MCF-7/ADR-RE proliferation. The class given is functional. The conditions noted are these: Homo sapiens.
Another test relates to MDA-N. Briefly: Inhibition of breast tumor lines(MDA-N) proliferation. The test is classed as functional. The conditions noted are these: Homo sapiens.
Test [1] concerns the target Protein kinase C beta type (Homo sapiens, UniProt P05771). Briefly: Inhibition of protein kinase C beta.
The target in test [2] is T1, Protein kinase C epsilon type (Homo sapiens, UniProt Q02156).
T1 sequence (Q02156 whole entry): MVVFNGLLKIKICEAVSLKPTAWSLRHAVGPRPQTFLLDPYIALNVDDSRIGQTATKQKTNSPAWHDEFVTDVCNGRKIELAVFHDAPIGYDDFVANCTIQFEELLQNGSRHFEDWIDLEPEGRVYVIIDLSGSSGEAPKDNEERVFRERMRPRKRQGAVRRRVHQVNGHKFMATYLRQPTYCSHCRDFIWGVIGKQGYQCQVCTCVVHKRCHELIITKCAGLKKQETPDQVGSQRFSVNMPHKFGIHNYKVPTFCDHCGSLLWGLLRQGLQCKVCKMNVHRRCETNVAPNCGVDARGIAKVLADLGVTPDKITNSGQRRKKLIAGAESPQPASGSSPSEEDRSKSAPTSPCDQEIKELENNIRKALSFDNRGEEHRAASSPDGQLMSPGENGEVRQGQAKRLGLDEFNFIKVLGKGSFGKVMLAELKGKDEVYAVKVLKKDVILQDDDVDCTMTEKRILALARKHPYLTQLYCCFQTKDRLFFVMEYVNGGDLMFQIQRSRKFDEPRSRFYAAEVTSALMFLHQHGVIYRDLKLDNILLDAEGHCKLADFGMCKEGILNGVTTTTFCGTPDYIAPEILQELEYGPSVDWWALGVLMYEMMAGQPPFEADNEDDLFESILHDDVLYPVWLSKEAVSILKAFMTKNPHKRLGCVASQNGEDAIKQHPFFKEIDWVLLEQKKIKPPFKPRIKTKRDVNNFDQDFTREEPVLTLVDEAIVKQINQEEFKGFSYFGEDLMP
Briefly: Inhibition of Protein kinase C epsilon.

Experimental findings from ChEMBL document CHEMBL1128142, “2-aryl-indolyl maleimides - novel and potent inhibitors of protein kinase C” (Bioorg Med Chem Lett, 1995) are described below.

Bounds are passed on as bounds.

Sequence of Protein kinase C beta type (P05771 whole entry): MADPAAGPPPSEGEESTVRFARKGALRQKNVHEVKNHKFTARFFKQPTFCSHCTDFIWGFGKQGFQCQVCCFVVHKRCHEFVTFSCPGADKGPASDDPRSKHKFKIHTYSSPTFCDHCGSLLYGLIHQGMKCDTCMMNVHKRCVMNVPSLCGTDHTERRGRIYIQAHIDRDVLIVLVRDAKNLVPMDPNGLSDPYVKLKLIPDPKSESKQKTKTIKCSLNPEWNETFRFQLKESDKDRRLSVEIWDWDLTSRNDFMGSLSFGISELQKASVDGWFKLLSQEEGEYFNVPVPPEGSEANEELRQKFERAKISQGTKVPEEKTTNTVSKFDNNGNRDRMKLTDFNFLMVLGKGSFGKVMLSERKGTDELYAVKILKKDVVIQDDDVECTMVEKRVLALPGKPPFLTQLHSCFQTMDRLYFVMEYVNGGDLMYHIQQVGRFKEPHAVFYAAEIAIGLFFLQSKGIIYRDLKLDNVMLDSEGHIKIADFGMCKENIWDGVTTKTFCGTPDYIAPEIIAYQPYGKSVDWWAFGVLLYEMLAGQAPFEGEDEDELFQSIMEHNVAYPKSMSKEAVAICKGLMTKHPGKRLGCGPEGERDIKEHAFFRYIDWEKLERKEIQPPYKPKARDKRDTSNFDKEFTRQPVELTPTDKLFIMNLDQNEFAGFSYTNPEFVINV

Turning to `CN(C)CCCn1c(-c2cc3ccccc3s2)c(C2=CC(=O)NC2=O)c2ccccc21`, the GI50 with MCF7 was found to be 100 nM.

The compound `N=C(N)SCCCn1cc(C2=CC(=O)NC2=O)c2ccccc21` yielded a GI50 in the test on MCF7 of 20 nM.

`N=C(N)SCCCn1c(-c2cc3ccccc3s2)c(C2=CC(=O)NC2=O)c2ccccc21`: the GI50 is < 10 nM with MDA-N and 20 nM in the test with MCF7. Besides, the IC50 in test [1] was 3 nM; in test [2], 10 nM.
